The values that follow come from patent US12433876B2, “Septin inhibitors for treatment of cancers” (UNIVERSITY OF ROCHESTER, priority 2019, dated 2025).

One assay concerns septin-9. Put plainly: Confocal analysis of septin-9 filament structure. Format: cell-based.
In another assay the test system is JIMT1 xenograft tumors. Put plainly: JIMT1 xenograft tumor growth. Format: in vivo, NSG mice. As to conditions: 25 mg/kg IP, 28 days.
The subject of another assay is SKOV-3 xenograft tumors. The experiment in a line: SKOV-3 xenograft tumor growth. Format: in vivo, NSG mice.
Another assay has as its system PANC-1 cells. The experiment in a line: Cell cycle analysis (PI, flow cytometry), PANC-1. Format: cell-based, human. On the procedure: For cell cycle analysis, BXPC-3 and PANC-1 and JIMT-1 cells (100,000/well) were seeded overnight in a 6 well dishes and allowed to adhere overnight. Media was replaced with fresh complete medium supplemented with DMSO or UR214-9 (100 nM and 3 μM) and cells were incubated for 72 hours. The media containing the drugs was removed and cells were washed twice with PBS and trypsinized gently. The cells were collected in 15 mL tubes, complete DMEM media was added to block trypsin and cells were centrifuged. The supernatants were removed and cells were gently treated with 70% cold-EtOH for 30 minutes. The fixed cells were centrifuged and the pellets obtained were collected in flow cytometry tubes and stained with preformulated PI/RNase solution (Cell Signaling Technology, catalog number: 4087s) for 30 minutes. The PI content was analyzed using a flow cytometer. Data was processed using Flowjo software.

Another assay deals with pSTAT-3. The experiment in a line: Immunoblot of phosphorylated STAT-3. Format: cell-based.
The test system of another assay is HE4 mRNA. Put plainly: HE4 expression by real time PCR. Format: cell-based. As to conditions: ECC-1, 300 μM, 5 hours, normalized to B2M. As to the method:
Cell lines, Culture, and Reagents. Cells were maintained in either DMEM (SKOV-3, KLE, OVCAR-3, OVCAR8-C5 and IGROV-1) or RPMI-1640 (ECC-1 and HCH-1), supplemented with 10% fetal calf serum (or 20% for OVCAR-3), penicillin (100 units/mL), and streptomycin (100 μg/mL) at 37° C. with 5% CO2 in a humidified incubator. Antibodies were purchased from Abcam (septin-2; ab179436) and Cell Signaling Technology; ERK (9102), p-ERK (4370), -actin (3700), u-Tubulin (2144), EGFR (4267) and HER2 (4290). FCF was purchased from Abcam. All other chemicals were from Sigma Aldrich. Synthesis of Derivaties. […] The reaction was monitored using thin-layer chromatography plates with DCM-MeOH or pure ethyl acetate as eluent. Spots were monitored in a UV chamber. […] Quantitative Real-Time PCR. […] Quantitative real-time PCR was conducted using QuantStudio 12 K Flex Real-Time PCR System (ABI) and the Taqman Gene Expression Assay (ABI) consisting of the FAM-labeled probes as follows: SEPT2 (Hs01565417_ml); WFDC2 (Hs00899484_ml); TBP (Hs00427620_ml) or B2M (Hs00187842_ml), which was used as reference for normalization. […] Cell viability, proliferation, and cellular apoptosis were measured using the MTS (Promega), BrdU cell proliferation (Cell Signaling Technology), and Caspase-Glo 3/7 apoptosis detection (Promega) assays, following the respective manufacturer's recommendations with suitable modification. […]

Description for SKOV-3 xenograft tumors: NSG mice 356 were implanted in their left flank with 1 million PANC-1 (HER2+, n=12), JIMT1 (number of animals=10) and SKOV-3 (number of animals=10) cells each in matrigel:media (1:1). […] The vehicle formulation was: 40% Hydroxypropyl-beta-cyclodextrin [Acros Organics] & solutol HS15 (Sigma] in sterile water). 25 mg/kg equivalent of UR214-9 (1 uL=200 ug in DMSO) was dissolved in 600 uL PBS+400 uL of the vehicle and vortexed to obtain a clear suspension.

As to `O=C(Nc1cc(Cl)nc(Cl)c1)Nc1cccc(SC(F)(F)F)c1F` [UR214-9], in the assay on septin-9 (PANC-1 and JIMT-1 cells), the septin-9 filament structures result was “clear disarrangement in septin-9 filament structures”. Further, in the assay on septin-9 (SKOV-3, 1 μM, 48 hours), the septin-9 structure result is reported as “reorganization of septin-9”. Also, the “xenograft tumor growth (tumor volume and weight)” value in the assay with JIMT1 xenograft tumors is recorded as “significant growth control”. Further, the “tumor growth during treatment” value in the assay with SKOV-3 xenograft tumors (UR214-9 25 mg/kg, M-F, I.P., trastuzumab 10 mg/kg, M) was “controlled the growth of tumors”. The “weight of extracted tumors” value in the assay with SKOV-3 xenograft tumors (day 53 since inoculation) is reported as “matched the average size seen in vehicle group”. Also, the “tumor size after treatments were stopped” value in the assay on SKOV-3 xenograft tumors (treatment stopped on day 27) was “reached the average size in control”. Also, the cell cycle distribution entry is “minor S-phase arrest” in the assay on PANC-1 cells (PANC-1, 100 nM) and “complete arrest in sub-G1/G0 phase” with PANC-1 cells (PANC-1, 3 μM). Further, the “phosphorylation of STAT-3” value in the assay with pSTAT-3 (MDA-MB-231, JIMT-1 and MCF-7 cells, 10 and 30 μM, 24 hours) is reported as “reduced phosphorylation of STAT-3”. The “phosphorylated STAT-3” value in the assay with pSTAT-3 (PANC-1) is given as “reduced phosphorylated STAT-3”.
On to `O=C(Nc1ccccc1)Nc1ccnc(Cl)c1` [FCF, N-(2-chloro-4-pyridyl)-N′-phenylurea, reference compound], for which the “HE4 mRNA” value with HE4 mRNA is listed as “suppress HE4 mRNA to some extent”.
